Assay results taken from US12616698B2, “Methods for reducing liver fat and for treating fatty liver disorders” (Corcept Therapeutics Incorporated, priority 2021, dated 2026).
“Also recorded” adds a separate entry of the source.

Tests used:
[1] = Example 6 study: pharmacokinetics; conditions: human, in vivo, oral; one patient (FIG. 13)
C57BL/6J male mice [2] = test: AMLN diet NASH mouse model, drug provided in the AMLN diet; format: in vivo; conditions: 60 mg/kg miricorilant in AMLN diet, 8 weeks; for Liver weight at termination of the study: vs diet-alone control (FIG. 8A)
Experimental: (§1) Two studies were conducted in C57BL/6J male mice (n=12 per group) maintained on a diet high in fat (40%), cholesterol (2%) and fructose (20%; referred to as the AMLN diet: see, e.g., Tolbol et al., World Journal of Gastroenterology, 24(2):179-194 (2018)) for 42 weeks before dosing with miricorilant was initiated. In the first study, all animals ate the AMLN diet, and received either placebo, 30 mg/kg miricorilant, or 60 mg/kg mifepristone once per day orally. […] All animals received the AMLN diet for 42 weeks prior to receiving their first dose of study drug or placebo. 4 weeks prior to receiving that first dose, a liver biopsy and histological examination of biopsy tissue was performed for each animal; 3 weeks prior to receiving that first dose, animals were randomized into three groups: control, miricorilant, or mifepristone. Only mice with fibrosis stage >=1 and steatosis score >=2 were allowed in the study and the groups were stratified according to liver col1a1 so that each study group had similar overall distributions of liver col1a1 among the mice. All animals continued on the study diet for the 3 weeks following randomization, at which time study drug or placebo administration began. All animals received their assigned drugs for 8 weeks (the 8 week in vivo study period). At 56 days (week 8) after initiation of drug administration, plasma ALT, AST, triglycerides, total cholesterol, and miricorilant levels were measured, and animals were sacrificed, liver necropsies were performed, liver histological ((NAFLD Activity Score, Fibrosis Stage, steatosis (scored using hematoxylin and eosin staining (HE)), col1a (scored using immunohistochemistry (IHC)) and Galectin-3 (IHC)) and liver biochemical measurements (including liver triglycerides and total cholesterol) were made, and liver and plasma samples were obtained for genetic ((e.g., RNA sequencing) and other analyses.
Thus, in these studies, the mice were subjected to a liver biopsy approximately 4 weeks before initiation of dosing with miricorilant and only mice with confirmed fibrosis (fibrosis stage ≥1) and steatosis (score ≥2) were entered into the study. At the end of the dosing period, blood samples were collected for determination of plasma ALT, AST, triglycerides, total cholesterol, and miricorilant. Liver samples were collected for analysis of triglycerides, total cholesterol, hydroxyproline, and histopathology. Body weight and food consumption were monitored throughout the study.
Type I collagen IHC staining Type I collagen (Southern Biotech, Cat. 1310-01) IHC were performed using standard procedures. Briefly, after antigen retrieval and blocking of endogenous peroxidase activity, slides were incubated with primary antibody. The primary antibody was detected using a polymeric HRP-linker antibody conjugate. Next, the primary antibody was visualized with DAB as chromogen. Finally, sections were counterstained in hematoxylin and cover-slipped.
Liver Galectin-3 content Galectin-3 (Biolegend, Cat. #125402) IHC was performed using standard procedures. Briefly, after antigen retrieval and blocking of endogenous peroxidase activity, slides were incubated with primary antibody. The primary antibody was detected using a linker secondary antibody followed by amplification using a polymeric HRP-linker antibody conjugate. Next, the primary antibody was visualized with DAB as chromogen. Finally, sections were counterstained in hematoxylin and cover-slipped.
Total liver col1a1 was evaluated from liver samples stained with anti-type I collagen (col1a1) (Southern Biotech, cat. 1310-01) at the end of the treatment period (typically using low power (20×) magnification). Galectin-3 content was evaluated from images of liver samples stained with anti-Galectin-3 (BioLegend, Cat. 125402) at the end of the treatment period (typically using low power (20×) magnification). Terminal relative (left) and total (right) liver type I Collagen (Col1a1) quantification was determined by morphometry. […]

C57BL/6J male mice [3] = test: AMLN diet NASH mouse model, once per day oral dosing; format: in vivo; conditions: 30 mg/kg/day orally once per day, 8 weeks
Experimental: as §1, with “Only mice with fibrosis stage >=1 and steatosis score >=2 were allowed in the study and the groups were stratified according to liver col1a1 so that each study group had similar overall distributions of liver col1a1 among the mice. All animals continued on the study diet for the 3 weeks following randomization, at which time study drug or placebo administration began. All animals received their assigned drugs for 8 weeks (the 8 week in vivo study period).” left out
Thus, in these studies, the mice were subjected to a liver biopsy approximately 4 weeks before initiation of dosing with miricorilant and only mice with confirmed fibrosis (fibrosis stage ≥1) and steatosis (score ≥2) were entered into the study. […] Body weight and food consumption were monitored throughout the study.
Liver samples were fixed in formalin, paraffin embedded and sections were stained with hematoxylin and eosin (H&E) and Sirius Red. Samples were scored for NAS and fibrosis stage using the clinical criteria outlined by Kleiner et al., Hepatology 41:1313-1321 (2005). […]

- AUC [1]: 5900 ng·h/mL
- Cmax [1]: 404 ng/mL
Structure (SMILES): O=c1[nH]c(=O)c(Cc2cccc(C(F)(F)F)c2)c([C@H]2CC[C@H](c3ccccc3)CC2)[nH]1 [miricorilant, (E)-6-(4-Phenylcyclohexyl)-5-(3-trifluoromethylbenzyl)-1H-pyrimidine-2,4-dione]
- Relative and total liver Galectin-3 content (C57BL/6J male mice [2]; IHC morphometry, vs vehicle (FIG. 8C)): reduced
- Total liver type I collagen (col1a1) content (C57BL/6J male mice [2]; IHC morphometry, vs vehicle, significant as total weight (FIG. 8B)): reduced
- Body weight (C57BL/6J male mice [2]; vs diet-alone control): significantly reduced
- Liver weight at termination of the study (C57BL/6J male mice [2]): reduced
- Liver weight at termination of the study (C57BL/6J male mice [2]; listed as Miricorilant): significantly reduced
- NAFLD Activity Score (NAS) (C57BL/6J male mice [3]; AMLN diet, vs control (FIG. 7A)): reduced; also recorded: significant reductions; also recorded: either did not increase, or decreased
- Hepatic ballooning portion of the NAFLD score (liver cell degeneration) (C57BL/6J male mice [3]; post- vs pre-study biopsy (FIG. 7B)): reduced
- Fibrosis stage score, post-study compared to pre-study (C57BL/6J male mice [3]; none showed an increased score): some mice in the miricorilant group showed decreased post-study fibrosis stage score
